Reference: US11505592B2, “Diagnosis and therapy of multiple sclerosis” (PRINDEX S.R.L., priority 2015, dated 2022)
Bridges are numbered along the chain shown (N, C = ends). Where no end group is shown, it is not given here. dibromoxylene = α,α'-dibromoxylene, used to cyclize the peptide by reaction with its two cysteines

Tests used:
MS sera = assay: PEPSCAN-based ELISA, binding of MS sera to library peptides; set-up: species or system human; conditions: ELISA binding value, MS sera n = 9
Description: (§1) The linear and CLIPS peptides are synthesized based on the amino acid sequence of the target protein using standard Fmoc-chemistry and deprotected using […] with scavengers. The constrained peptides are synthesized on chemical scaffolds in order to reconstruct conformational epitopes, using Chemically Linked Peptides on Scaffolds (CLIPS) technology (Timmerman et al. (2007). For example, the single looped peptides are synthesized containing a dicysteine, which was cyclized by treating with alpha, alpha′-dibromoxylene and the size of the loop is varied by introducing cysteine residues at variable spacing. If other cysteines besides the newly introduced cysteines are present, they are replaced by alanine. The side-chains of the multiple cysteines in the peptides are coupled to CLIPS templates by reacting onto credit-card format polypropylene PEPSCAN cards (455 peptide formats/card) with a 0.5 mM solution of CLIPS template such as 1,3-bis (bromomethyl) benzene in ammonium bicarbonate (20 mM, pH 7.9)/acetonitrile (1:1(v/v)). The cards are gently shaken in the solution for 30 to 60 minutes while completely covered in solution. Finally, the cards are washed extensively with excess of H2O and sonicated in distrupt-buffer containing 1 percent SDS/0.1 percent beta-mercaptoethanol in PBS (pH 7.2) at 70° C. for 30 minutes, followed by sonication in H2O for another 45 minutes.
(§2) The binding of antibody to each peptide is tested in a PEPSCAN-based ELISA. The 455-well credit card format polypropylene cards containing the covalently linked peptides are incubated with primary antibody solution for example consisting of 1/1000 diluted serum in blocking solution, for example 4% horse serum, 5% ovalbumin (w/v) in PBS/1% Tween. After washing, the peptides are incubated with a 1/1000 dilution of antibody peroxidase conjugate for one hour at 25° C. After washing, the peroxidase substrate 2,2′-azino-di-3-ethylbenzthiazoline sulfonate (ABTS) and 2 microlitres of 3 percent H2O2 are added. After one hour, the color development are measured. The color development are quantified with a charge coupled device (CCD)-camera and an image processing system (Slootstra et al., 1996).
(§3) The raw data are optical values obtained by a CCD-camera calibrated to export absorption values compatible with a standard 96-well plate ELISA-reader. First the CCD-camera makes a picture of the card before peroxidase coloring and then again a picture after the peroxidase coloring. These two pictures are substracted from each other yielding a binding value for each peptide.
(§4) All peptides have been synthesized in a peptide array format and the binding of 20 different sera to all peptide libraries were measured in an ELISA based set up following the procedure described in detail in the method section “Peptide synthesis and screening assays”. In particular 2 sets of experiments were performed on the 2 libraries by using 2 different dilutions of the human patients sera. In the first set of experiment the 20 sera were used at 1:2500 dilutions, while in the second experiment the dilution of the sera was 1:1000. The binding of the different sera to all peptides was quantified and analyzed in detail (Tables 1 and 2, FIGS. 15A, B, C, D and […]

CTRL sera = assay: PEPSCAN-based ELISA, binding of control (CTRL) sera to library peptides; set-up: species or system human; conditions: ELISA binding value, CTRLs n = 10
Description: as §1, §2, §3, §4

Sequence | MEAN MS (MS sera; NOX2 library) | MEAN CTRL (CTRL sera; NOX2 library) | MEAN MS (MS sera; 5HT2A receptor library) | MEAN CTRL (CTRL sera; 5HT2A receptor library)
NFARKRIKNPAAGLY [SEQ ID NO: 77] | 604.167 | 323.85 | – | –
SYLNFARKRIAAPEG [SEQ ID NO: 71] | 472.000 | 259.75 | – | –
TILYGYRWPLPSKLC [Peptide 29] | – | – | 651.50 | 378.20
CNSLMQLNDDTRLYCLSSEGSLSPSSLSC [Peptide 6] | – | – | 418.89 | 249.55
CDSKVFKEGSSLLACMDILSEENTSLSSC [Peptide 28] | – | – | 429.00 | 236.60
CNITVSEQKISEWGKICGDRQNESYLNFARKRC [SEQ ID NO: 144] | 816.722 | 446.7 | – | –
CLSPSSLSLLHLQECMDILSEENTSLSSC [Peptide 10] | – | – | 305.00 | 183.45
CEWSVNARVNNSDPYSCPYSVALSELGDRQNEC [SEQ ID NO: 72] | 428.167 | 225.5 | – | –
CLTILYGYRWPLPSCKESSNEDVIGALLC [Peptide 12] | – | – | 629.14 | 350.93
CNFARKRIKNPEGGLYCSYLNFARKRIKNPEGC [SEQ ID NO: 97] | 752.333 | 416.6 | – | –
CSYLNFARKRIKNPEGCITVSEQKISEWGKIKC [SEQ ID NO: 122] | 796.222 | 457.4 | – | –
CLTILYGYRWPAASKLC [Peptide 41] | – | – | 782.33 | 449.80
CGDRQNESYLNFARKRCVSEQKISEWGKIKESC [SEQ ID NO: 152] | 805.278 | 461.6 | – | –
CNSDPYSVALSELGDRCITVSEQKISEWGKIKC [SEQ ID NO: 143] | 781.611 | 456.45 | – | –
CVFKEGSSLLADDNCKESSNEDVIGALLC [Peptide 38] | – | – | 594.61 | 348.13
CPYSVALSELGDRQNECITVSEQKISEWGKIKC [SEQ ID NO: 124] | 824.056 | 469.75 | – | –
CVRGQTAESLAVHNITCSLAVHNITVSEQKISC [SEQ ID NO: 156] | 546.444 | 304.75 | – | –
CVRGQTAESLAVHNITCVHNITVSEQKISEWGC [SEQ ID NO: 148] | 445.278 | 263.5 | – | –
CNSDPYSVALSELGDRCVSEQKISEWGKIKESC [SEQ ID NO: 130] | 764.528 | 434.925 | – | –
CVSEQKISEWGKIKESCQNESYLNFARKRIKNC [SEQ ID NO: 64] | 804.556 | 402.9 | – | –

Sequence | MEAN MS (MS sera; NOX2 library) | MEAN CTRL (CTRL sera; NOX2 library) | MEAN MS (MS sera; 5HT2A receptor library) | MEAN CTRL (CTRL sera; 5HT2A receptor library)
CLTILYGYRWPLPSKLC [Peptide 35] | – | – | 792.94 | 475.00
CQKISEWGKIKESPIPCVHNITVSEQKISEWGC [SEQ ID NO: 149] | 442.611 | 263.25 | – | –
CITVSEQKISEAAKIKC (linker 1-17 via dibromoxylene (inferred)) [SEQ ID NO: 147] | 703.000 | 383.25 | – | –
CLGDRQNESYLAAARKC [SEQ ID NO: 145] | 698.944 | 402.85 | – | –
CRQNESYLNFARKRIKC [SEQ ID NO: 95] | 653.944 | 350.1 | – | –
CQTAESLAVHNITVSECQNESYLNFARKRIKNC [SEQ ID NO: 100] | 697.667 | 367.45 | – | –
CNITVSEQKISEWGKICQNESYLNFARKRIKNC [SEQ ID NO: 81] | 770.889 | 408.8 | – | –
QKISEWGKI [SEQ ID NO: 146] | 508.333 | 298.2 | – | –
STTNSLMQLNAATRL [Peptide 31] | – | – | 611.83 | 385.15
CVRGQTAESLAVHNITCITVSEQKISEWGKIKC [SEQ ID NO: 134] | 758.278 | 440.5 | – | –
CSTTNSLMQLNDDTCMDILSEENTSLSSC [Peptide 11] | – | – | 321.28 | 186.85
QNESYLNFARAAIKN [SEQ ID NO: 113] | 421.722 | 244 | – | –
CVSEQKISEWGKIKESCTVSEQKISEWGKIKEC [SEQ ID NO: 142] | 760.333 | 446.5 | – | –
GDRQNESYLNFARKR [SEQ ID NO: 120] | 325.333 | 163.95 | – | –
CTVDSENRTNLSSECMDILSEENTSLSSC [Peptide 13] | – | – | 300.11 | 160.80
CLSSEGSLSPSSLSCMDILSEENTSLSSC [Peptide 26] | – | – | 320.72 | 188.85
CTVDSENRTNLSSECRTNLSSEGSLSPSC [Peptide 25] | – | – | 507.22 | 296.95
CSDAFNWTVDSENRCMDILSEENTSLSSC [Peptide 22] | – | – | 394.00 | 207.20
DPYSVALSELGDRQN [SEQ ID NO: 132] | 300.556 | 177.25 | – | –
CNFARKRIKNC [SEQ ID NO: 60] | 748.389 | 374.6 | – | –

Sequence | MEAN MS (MS sera; NOX2 library) | MEAN CTRL (CTRL sera; NOX2 library) | MEAN MS (MS sera; 5HT2A receptor library) | MEAN CTRL (CTRL sera; 5HT2A receptor library)
CNSLMQLNDDTRLYCMDILSEENTSLSSC [Peptide 1] | – | – | 445.78 | 252.10
GDRQNESYLNAGRKR [SEQ ID NO: 68] | 547.278 | 294.2 | – | –
GYRWPLPSK [Peptide 14] | – | – | 623.00 | 322.80
CVSEQKISEWGKIKESCEQKISEWGKIKESPIC [SEQ ID NO: 84] | 811.056 | 443.5 | – | –
CLNFARKRIKC [SEQ ID NO: 87] | 713.333 | 374.7 | – | –
NFARKRIKN [SEQ ID NO: 58] | 613.833 | 288.95 | – | –
CVRGQTAESLAVHNITCQNESYLNFARKRIKNC [SEQ ID NO: 66] | 824.500 | 438.35 | – | –
CSYLNFARKRIKNPEGCGDRQNESYLNFARKRC [SEQ ID NO: 125] | 786.389 | 430.35 | – | –
CQKISEWGKIKESPIPCTVSEQKISEWGKIKEC [SEQ ID NO: 93] | 846.833 | 476.45 | – | –
RQNESYLNFARKRIK [SEQ ID NO: 76] | 458.833 | 241.2 | – | –
CVSEQKISEWGKIKESCVSEQKISEWGKIKESC [SEQ ID NO: 115] | 756.639 | 432.35 | – | –
LGDRQNESYLAAARK [SEQ ID NO: 127] | 478.278 | 262.75 | – | –
CMDILSEENTSLSSCSKESSNEDVIGALC [Peptide 44] | – | – | 432.33 | 266.55
LTILYGYRWPLPSKL [Peptide 8] | – | – | 647.17 | 340.05
CLYGYRWPLPSKLSCSGEANTSDAFNWTC [Peptide 43] | – | – | 649.67 | 344.80
CLYGYRWPLPSKLSCMDILSEENTSLSSC [Peptide 4] | – | – | 449.78 | 246.80
CAVHNITVSEQKISEWCVSEQKISEWGKIKESC [SEQ ID NO: 123] | 697.000 | 392.5 | – | –
DPYSVALSELAARQN [SEQ ID NO: 78] | 565.389 | 325.05 | – | –
CESLAVHNITVSEQKICGDRQNESYLNFARKRC [SEQ ID NO: 136] | 730.278 | 409.15 | – | –
